The source of these data is US7947839B2, “Heterocyclic-substituted bis-1,8 naphthalimide compounds, antibody drug conjugates, and methods of use” (Genentech, Inc., priority 2004, dated 2011).

Structures are written as SMILES. Where two headings read alike, the source gives them in different places.

In this experiment the test system is BT474, H460, HCT116, HUVEC, LNCAP, MCF7, and PC3 cells. The experiment is described as follows: free test compound cell-based assay, 7 tumor cell panel (CellTiter-Glo). Further details: species or system Human. The following applies: NSA = no significant activity; for IC50: Homo sapiens. The procedure: Heterocyclic-substituted bis-1,8-naphthalimide compounds of Formula XV in Table 2 were prepared and tested for in vitro activity against a panel of tumor cells (Example 110).
Alternatively, the efficacy of compounds of the invention can be assayed by the following free test compound cell-based assay protocol
• 1. Prepare each cell line (BT474, H460, HCT116, HUVEC, LNCaP, MCF7, and PC3) at 1 k cells/well in separate plates with Complete Media (CM): RPM1 […]+10% FBS (Fetal Bovine Serum)+1% of 200 mM L-Glutamine. Plate number depends on test compounds provided by submitter. • 2. Detach prospective cell lines by first removing the media. When the flask is empty of media, begin rinsing out individual flasks with 5 mL sterile PBS. Move the PBS around within the flask to rinse well. Decant the PBS and add aseptically 5 mL of Accutase/flask. Make sure the Accutase covers the entire flask. • 3. Immediately place the flask(s) into a 37° C. incubator to allow cells to detach for 5-7 minutes. • 4. Post 5-7 minutes, remove flask(s) from the incubator and begin harvesting the detached cells using a serological pipette. Pipette up and down along the back of the flask to facilitate cell detachment. Pipette the Accutase containing cells into a sterile 50 mL conical tube/cell line. Pipette 10 mL of sterile PBS and re-rinse the flask to obtain remaining cells and dispense it into the same 50 mL conical tube/cell line for a total volume of 15 mL/tube/cell line. • 5. After each cell line has been allocated to a designated tube, take out 100 μL/tube/cell line for the cell counts. While the cell counts are being calculated, centrifuge the 50 mL tubes at 1000 rpm at 4° C. with a high brake. • 6. When centrifugation and cell calculations are completed, decant excess liquid and resuspend the cell pellet(s) using 5 mL CM, depending on calculations. • 7. Using a 5 mL syringe and an 18 G ½ needle, strain the cells to help prevent aggregation. Further strain by using a […] cell filter to block out any huge aggregates not broken down by the needle. • 8. After cell straining and filtering, take out calculated amount for a 1 k cells/well into fresh media. Take the media containing cells and load 100 μL/well into a bottom tissue culture treated flat 96 well plate. • 9. Immediately place in a 37° C. incubator overnight to allow the cells to adhere to the tissue culture treated 96 well plates. Day 2: • 1. Test compounds are submitted at 10 mM in sterile DMSO. • 2. DMSO as negative control and a positive standard are used in every assay! • 3. Prepare a 1:1000 fold dilution for each test compound, control, and standard for a 10e-5 M starting point. Do a 1:100 first, then a 1:10. • 4. Prior to diluting samples, vortex the samples and the controls for a homogeneous mixture. Note any sample that will not solubilize and/or stay in suspension. • 5. When the samples are at 10e-5 M, vortex each tube well and spin down fluid to ensure sample remains in tacked. Manual Dilution Protocol: • 1. After the tubes are at a final 1:1000 (10e-5 M) dilution, load the first column of the microtube box with the prospective sample. Load DMSO and positive control in singlets. The test compounds are loaded in duplicates. Load the remaining empty microtube racks with 540 μL of media to prepare for a serial dilution of 1:10. • 2. Agitate and transfer 60 μL from column 1 into successive wells containing 540 μL of media (1:10). Therefore, transfer 60 μL of column 1 into 540 μL of column 2. Resuspend column 2 about 10-15×'s then transfer 60 μL from column 2 to column 3 etc. Automated Dilution Protocol: • 1. Once the tubes are at a final 1:1000 (10e-5 M), load the first column of the microtube box with the prospective sample. Load DMSO and positive control in singlets. The compounds are loaded in duplicates. Load the remaining empty microtube racks manually with 540 μL of media to prepare for the automated serial dilution of 1:10 (see above diagram). • 2. […]
Background: In ATP-based viability assays light output follows the ATP content of the culture.

The mark [1] stands for this setting: average linear IC50 across the 7 tumor cell panel, read-out: Avg.
The mark [2] stands for this setting: average log IC50 across the 7 tumor cell panel, read-out: Avg. (log IC50) (converted).
Setting [3] is: average linear IC50 across the 7 tumor cell panel.
Where [4] appears, read: average log IC50 across the 7 tumor cell panel.

Take `O=C1c2cccc3c(N4CCOCC4)ccc(c23)C(=O)N1CCNCCCNCCN1C(=O)c2cccc3c(N4CCOCC4)ccc(c23)C1=O` [Compound 20, N, N′-(bis-aminoethyl-1,3-propanediamine)-bis-4-morpholino-1,8 naphthalimide]: the IC50 was 2.57 nM under setting [1] and 2.57 nM under setting [2].
For the compound `CN1CCN(c2ccc3c4c(cccc24)C(=O)N(CCNCCCNCCN2C(=O)c4cccc5c(N6CCN(C)CC6)ccc(c45)C2=O)C3=O)CC1` [Compound 24a], the IC50 is, setting by setting: under setting [1], 0.71 nM; under setting [2], 0.708 nM.
In the same order, the values of `O=C1c2cccc3c(-n4ccnc4)ccc(c23)C(=O)N1CCNCCCNCCN1C(=O)c2cccc3c(-n4ccnc4)ccc(c23)C1=O` [Compound 24b, N, N′-(bis-aminoethyl-1,3-propanediamine)-bis-(4-N-imidazolyl)-1,8 naphthalimide] are 0.41 nM and 0.407 nM.
In the same order, the values of `CCN(CCCNCCN1C(=O)c2cccc3c(N4CCOCC4)ccc(c23)C1=O)CCN1C(=O)c2cccc3c(N4CCOCC4)ccc(c23)C1=O` [Compound 30a, N, N′-(N-ethyl, bis-aminoethyl-1,3-propanediamine)-bis-4-morpholino-1,8 naphthalimide] are 3.98 nM and 3.98 nM.
For the compound `O=C(CN1C(=O)c2cccc3c(N4CCOCC4)ccc(c23)C1=O)NCCCNC(=O)CN1C(=O)c2cccc3c(N4CCOCC4)ccc(c23)C1=O` [Compound 34, N, N′-(bis-2-acetamido-1,3-propanediamine)-bis-4-morpholino-1,8 naphtbalimide], the IC50 under setting [1] worked out at 2190 nM and the IC50 under setting [2] is 2190 nM.
Consider `O=C(CC(=O)NCCN1C(=O)c2cccc3c(N4CCOCC4)ccc(c23)C1=O)NCCN1C(=O)c2cccc3c(N4CCOCC4)ccc(c23)C1=O` [Compound 35, N, N′-(bis-ethyl, malondiamide)-bis-4-morpholino-1,8 naphthalimide], for which the “Avg. (nM)” value under setting [3] is reported as “NSA”. Under setting [4], the “Avg. (log IC50)” value was “NSA”.
Take `O=C(CN1C(=O)c2cccc3c(N4CCOCC4)ccc(c23)C1=O)NCCNCCCN1C(=O)c2cccc3c(N4CCOCC4)ccc(c23)C1=O` [Compound 38]: the IC50 reads like this: under setting [1], 1820 nM; under setting [2], 1820 nM.
As to `O=C(CN1C(=O)c2cccc3c(N4CCOCC4)ccc(c23)C1=O)NCCCNCCN1C(=O)c2cccc3c(N4CCOCC4)ccc(c23)C1=O` [Compound 41], the IC50 reads like this: under setting [1], 3.39 nM; under setting [2], 3.39 nM.
As for `O=C1c2cccc3c(N4CCOCC4)ccc(c23)C(=O)N1CCCCNCCCN1C(=O)c2cccc3c(N4CCOCC4)ccc(c23)C1=O` [Compound 45, N, N′-(4-aza-octanyl)-bis-4-morpholino-1,8 naphthalimide], the IC50 was 1510 nM under setting [1] and 1510 nM under setting [2].
Regarding `O=C1c2cccc3c(N4CCOCC4)ccc(c23)C(=O)N1CCNCCNCCN1C(=O)c2cccc3c(N4CCOCC4)ccc(c23)C1=O` [Compound 54a, N, N′-(bis-aminoethyl-1,2-ethanediamine)-bis-4-morpholino-1,8 naphthalimide], the IC50 is 22.9 nM under setting [1] and 22.9 nM under setting [2].
For the compound `O=C1c2cccc3c(N4CCOCC4)ccc(c23)C(=O)N1CCOCCOCCN1C(=O)c2cccc3c(N4CCOCC4)ccc(c23)C1=O` [Compound 54b, N, N′-(3,6-dioxaoctanylene)-bis-4-morpholino-1,8 naphthalimide], under setting [3], the “Avg. (nM)” value was “NSA”. The “Avg. (log IC50)” value under setting [4] is listed as “NSA”.
`CC(=O)N(CCCNCCN1C(=O)c2cccc3c(N4CCOCC4)ccc(c23)C1=O)CCN1C(=O)c2cccc3c(N4CCOCC4)ccc(c23)C1=O` [Compound 54c, N, N′-(N-acetyl, bis-aminoethyl-1,3-propanediamine)-bis-4-morpholino-1,8 naphthalimide]: the IC50 under setting [1] was found to be 191 nM and the IC50 under setting [2] is 191 nM.
In the case of `NCC(=O)N(CCCNCCN1C(=O)c2cccc3c(N4CCOCC4)ccc(c23)C1=O)CCN1C(=O)c2cccc3c(N4CCOCC4)ccc(c23)C1=O` [Compound 54d, N, N′-(N-glycyl, bis-aminoethyl-1,3-propanediamine)-bis-4-morpholino-1,8 naphthalimide], the IC50 is 324 nM under setting [1] and 324 nM under setting [2].
As for `C[C@H](N)C(=O)N(CCCNCCN1C(=O)c2cccc3c(N4CCOCC4)ccc(c23)C1=O)CCN1C(=O)c2cccc3c(N4CCOCC4)ccc(c23)C1=O` [Compound 54e, N, N′-(N-alanyl, bis-aminoethyl-1,3-propanediamine)-bis-4-morpholino-1,8 naphthalimide], the IC50 under setting [1] was 126 nM and the IC50 under setting [2] was 126 nM.
In the case of `CCOC(=O)N(CCCNCCN1C(=O)c2cccc3c(N4CCOCC4)ccc(c23)C1=O)CCN1C(=O)c2cccc3c(N4CCOCC4)ccc(c23)C1=O` [Compound 54f, N, N′-(N-carboethoxy, bis-aminoethyl-1,3-propanediamine)-bis-4-morpholino-1,8 naphthalimide], the IC50 by setting is: under setting [1], 692 nM; under setting [2], 692 nM.
Turning to `COCCOCCOCC(=O)N(CCCNCCN1C(=O)c2cccc3c(N4CCOCC4)ccc(c23)C1=O)CCN1C(=O)c2cccc3c(N4CCOCC4)ccc(c23)C1=O` [Compound 54g, N, N′-(N-methylethoxyethoxyacetyloxy, bis-aminoethyl-1,3-propanediamine)-bis-4-morpholino-1,8 naphthalimide], the IC50 was 692 nM under setting [1] and 692 nM under setting [2].
On to `O=C1c2cccc3c(N4CCOCC4)ccc(c23)C(=O)N1CCNCCCN(CCN1C(=O)c2cccc3c(N4CCOCC4)ccc(c23)C1=O)C(=O)C(F)(F)F` [Compound 54h, N, N′-(N-trifluoromethylacetyl, bis-aminoethyl-1,3-propanediamine)-bis-4-morpholino-1,8 naphthalimide], for which the IC50 runs as follows: under setting [1], 309 nM; under setting [2], 309 nM.
On to `O=C1c2cccc3c(N4CCOCC4)ccc(c23)C(=O)N1CCNCCCN(CCCS)CCN1C(=O)c2cccc3c(N4CCOCC4)ccc(c23)C1=O` [Compound 55a, N, N′-(N-3-mercaptopropyl, bis-aminoethyl-1,3-propanediamine)-bis-4-morpholino-1,8 naphthalimide], for which the IC50 reads like this: under setting [1], 57.5 nM; under setting [2], 57.5 nM.
With `O=C(CCS)N(CCCNCCN1C(=O)c2cccc3c(N4CCOCC4)ccc(c23)C1=O)CCN1C(=O)c2cccc3c(N4CCOCC4)ccc(c23)C1=O` [Compound 55c, N, N′-(N-3-mercaptopropionyl, bis-aminoethyl-1,3-propanediamine)-bis-4-morpholino-1,8 naphthalimide], the IC50 is, setting by setting: under setting [1], 3720 nM; under setting [2], 3720 nM.
Regarding `O=C1c2cccc3cc([N+](=O)[O-])cc(c23)C(=O)N1CCNCCCNCCN1C(=O)c2cccc3c(N4CCOCC4)ccc(c23)C1=O` [Compound 56a, N, N′-(bis-aminoethyl-1,3-propanediamine)-3-nitro, 4-morpholino-1,8 naphthalimide], the IC50 by setting is: under setting [1], 1.62 nM; under setting [2], 1.62 nM.
Turning to `Nc1ccc2c3c(cccc13)C(=O)N(CCNCCCNCCN1C(=O)c3cccc4c(N5CCOCC5)ccc(c34)C1=O)C2=O` [Compound 56b, N, N′-(bis-aminoethyl-1,3-propanediamine)-4-amino, 4-morpholino-1,8 naphthalimide], the IC50 under setting [1] amounted to 18.6 nM and the IC50 under setting [2] is 18.6 nM.
